Test results reported in US20250152719A1, “FUSED IMIDE DERIVATIVE” (Chia Tai Tianqing Pharmaceutical Group Co., Ltd., priority 2021, published 2025).
Each block holds one compound with its values, some of them ahead of it.

How the values were obtained:
BTK = BTK (Homo sapiens (Human), UniProt Q06187); test: BTK degradation in OCI-LY10 cells (Total-BTK HTRF kit); format: cell-based; conditions: 24 (or 6) h incubation; for DC50 / BTK degradation in OCI-LY10 cells Dmax: OCI-LY10 cells; for DC50: DC50 = concentration when degradation rate reaches 50%, read-out: OCI-LY10 cell BTK degradation DC50; for Dmax: OCI-Ly10, OCI-LY10 cells; for Dmax / BTK degradation in OCI-LY10 cells Dmax: maximum degradation rate
Sequence of BTK (Q06187 whole entry): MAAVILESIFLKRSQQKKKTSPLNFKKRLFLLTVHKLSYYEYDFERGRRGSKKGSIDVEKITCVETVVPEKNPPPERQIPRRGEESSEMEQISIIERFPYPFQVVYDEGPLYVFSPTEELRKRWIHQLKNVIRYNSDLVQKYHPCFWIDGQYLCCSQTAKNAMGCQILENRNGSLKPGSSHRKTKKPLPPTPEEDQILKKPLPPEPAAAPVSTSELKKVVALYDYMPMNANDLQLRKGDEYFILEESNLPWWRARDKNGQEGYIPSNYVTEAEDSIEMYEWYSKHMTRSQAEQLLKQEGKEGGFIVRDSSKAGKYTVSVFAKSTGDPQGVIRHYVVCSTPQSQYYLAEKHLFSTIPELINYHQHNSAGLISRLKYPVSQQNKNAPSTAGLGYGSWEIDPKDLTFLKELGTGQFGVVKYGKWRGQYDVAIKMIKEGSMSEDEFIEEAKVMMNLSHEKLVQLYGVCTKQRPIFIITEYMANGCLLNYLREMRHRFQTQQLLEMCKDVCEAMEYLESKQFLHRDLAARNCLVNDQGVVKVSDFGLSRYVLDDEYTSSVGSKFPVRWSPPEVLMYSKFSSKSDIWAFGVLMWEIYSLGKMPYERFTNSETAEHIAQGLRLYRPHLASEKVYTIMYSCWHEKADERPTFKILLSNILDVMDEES
Method: The detection was carried out using the Total-BTK Kits (cisbio, 63ADK064PEH), and 4× Supplemented Lysis buffer was prepared using the Blocking reagent stock solution (100×) and Lysis buffer stock solution (4×). Premixed antibody solutions were prepared using the Detection buffer, Total-BTK d2 antibody, and Total-BTK Eu Cryptate antibody.
OCI-LY10 cells in a good growth state were collected and added to a centrifuge tube, adjusted to a cell density of 4.17×10^6 cells/mL, and seeded in a 384-well plate (12 μL/well). The cells were incubated overnight in a cell incubator. Compounds were added using a nanoliter pipettor such that the final concentrations of the compounds were 100 nM-0.098 nM; the addition was performed in duplicate, and meanwhile, a control was set. After another 24 (or 6) h of incubation in the cell incubator, the 4× Supplemented Lysis buffer was added at 4 μL/well to lyse the cells. After the cells were shaken for 40 min at room temperature, the Premixed antibody solutions were added at 4 μL/well, and the cells were left to stand overnight at room temperature. Fluorescence values of the cells were detected at 665 nm/620 nm using an Envision microplate reader, the four-parameter analysis was performed, the dose-response curves were fit, and DC50 (the concentration of the drug when the degradation rate reaches 50%) and Dmax (the maximum degradation rate) were calculated.

TMD8-BTK(C481S) cells = test: Inhibitory activity on TMD8-BTK(C481S) cell proliferation (CCK-8); format: cell-based; conditions: 72 h incubation
Method: TMD8-BTK(C481S) cells in a good growth state were collected and added to a centrifuge tube, adjusted to a cell density of 8×10^4 cells/mL, and seeded in a 96-well plate (100 μL/well). The cells were incubated overnight in a cell incubator. Compounds were added using a nanoliter pipettor such that the final concentrations of the compounds were 5000 nM-0.31 nM; the addition was performed in duplicate, and meanwhile, a control was set. After another 72 h of incubation in the cell incubator, 10 μL of CCK-8 (CK04, PP799) was added. After 4 h of incubation in the cell incubator, absorbance values were detected at 450 nm using an Envision microplate reader, the four-parameter analysis was performed, the dose-response curves were fit, and IC50 was calculated.

DC50 (BTK): < 0.098 nM
Dmax (BTK): 99%
Compound: CN1CCN([C@@H]2CCCN(c3cnc(C(N)=O)c(Nc4ccc(C5CCN(C[C@H]6CCN(c7cccc8c(C9CCC(=O)NC9=O)noc78)C6)CC5)cc4)n3)C2)C1=O (some centres unmarked) [Compound 2]
IC50 (TMD8-BTK(C481S) cells; 72 h): 18 nM

Compound: CN1CCN([C@@H]2CCCN(c3cnc(C(N)=O)c(Nc4ccc(C5CCN(C[C@H]6CCN(c7ccc8onc(C9CCC(=O)NC9=O)c8c7)C6)CC5)cc4)n3)C2)C1=O (some centres unmarked) [Compound 4]
IC50 (TMD8-BTK(C481S) cells; 72 h): 27 nM

DC50 (BTK): 0.098 nM
BTK degradation in OCI-LY10 cells Dmax (BTK): 99%
Compound: CN1CCN([C@@H]2CCCN(c3cnc(C(N)=O)c(Nc4ccc(C5CCC6(CC5)CN(C5CN(c7ccc8c(C9CCC(=O)NC9=O)noc8c7)C5)C6)cc4)n3)C2)C1=O (some centres unmarked) [Compound 12]

Dmax (BTK): > 90%
Compound: NC(=O)c1ncc(N2CCCCC2)nc1Nc1ccc(N2CCC(N3Cc4ccc5c(C6CCC(=O)NC6=O)noc5c4C3)CC2)cc1 (centres unmarked) [Compound 31]

BTK degradation in OCI-LY10 cells Dmax (BTK): >90%
Compound: CN1CCN([C@@H]2CCCN(c3cnc(C(N)=O)c(Nc4ccc5c(c4)CN(CC4Cc6ccc7c(C8CCC(=O)NC8=O)noc7c6C4)C5)n3)C2)C1=O (some centres unmarked) [Compound 45]

Dmax (BTK): > 90%
Compound: CN1CCN([C@@H]2CCCN(c3cnc(C(N)=O)c(Nc4ccc(C5CCC6(CC5)CC(N5CCc7ccc8c(C9CCC(=O)NC9=O)noc8c7C5)C6)cc4)n3)C2)C1=O (some centres unmarked) [Compound 57]

Compound: NC(=O)c1ncc(N2CCCCC2)nc1Nc1ccc(N2CCC(N3CCc4ccc5c(C6CCC(=O)NC6=O)noc5c4C3)CC2)cc1 (centres unmarked) [Compound 60]
IC50 (TMD8-BTK(C481S) cells; 72 h): 9.4 nM

Compound: NC(=O)c1ncc(N2CCCCC2)nc1Nc1ccc(N2CCC(N3CCc4c(ccc5c(C6CCC(=O)NC6=O)noc45)C3)CC2)cc1 (centres unmarked) [Compound 61]
IC50 (TMD8-BTK(C481S) cells; 72 h): 13 nM

Compound: NC(=O)c1ncc(N2CCCCC2)nc1Nc1ccc(C2CCC(N3CCc4ccc5c(C6CCC(=O)NC6=O)noc5c4CC3)CC2)cc1 (centres unmarked) [Compound 67]
IC50 (TMD8-BTK(C481S) cells): 32 nM

Compound: NC(=O)c1ncc(N2CCCCC2)nc1Nc1ccc(C2CCN(C3Cc4ccc5c(C6CCC(=O)NC6=O)noc5c4C3)CC2)cc1 (centres unmarked) [Compound 70]
IC50 (TMD8-BTK(C481S) cells): 15 nM

Compound: NC(=O)c1ncc(N2CCCCC2)nc1Nc1ccc(C2CCC(CN3CCc4ccc5c(C6CCC(=O)NC6=O)noc5c4CC3)CC2)cc1 (centres unmarked) [Compound 74]
IC50 (TMD8-BTK(C481S) cells): 23 nM

Compound: NC(=O)c1ncc(N2CCCCC2)nc1Nc1ccc(C2CCN(CC3Cc4ccc5c(C6CCC(=O)NC6=O)noc5c4C3)CC2)cc1 (centres unmarked) [Compound 75]
IC50 (TMD8-BTK(C481S) cells; 72 h): 9.8 nM

BTK degradation in OCI-LY10 cells Dmax (BTK): >90%
Compound: CN1CCN([C@@H]2CCCN(c3cnc(C(N)=O)c(Nc4ccc5c(c4)CCC4(CCN(CC6Cc7ccc8c(C9CCC(=O)NC9=O)noc8c7C6)CC4)O5)n3)C2)C1=O (some centres unmarked) [Compound 78]

Dmax (BTK): > 90%
Compound: CN1CCN([C@@H]2CCCN(c3cnc(C(N)=O)c(Nc4ccc5c(c4)OC[C@H]4CN(CC6Cc7ccc8c(C9CCC(=O)NC9=O)noc8c7C6)CCN54)n3)C2)C1=O (some centres unmarked) [Compound 86]

BTK degradation in OCI-LY10 cells Dmax (BTK): >90%
Compound: CN1CCN([C@@H]2CCCN(c3cnc(C(N)=O)c(Nc4ccc(C5CCN(C[C@H]6C[C@H](n7ccc8c9c(C%10CCC(=O)NC%10=O)noc9ccc87)C6)CC5)cc4)n3)C2)C1=O (some centres unmarked) [Compound 98-1]

BTK degradation in OCI-LY10 cells Dmax (BTK): >90%
Compound: NC(=O)c1ncc(N2CCCCC2)nc1Nc1ccc(C2CCN(C[C@H]3C[C@@H](n4ccc5c6c(C7CCC(=O)NC7=O)noc6ccc54)C3)CC2)cc1 (some centres unmarked) [Compound 99-1]

BTK degradation in OCI-LY10 cells Dmax (BTK): >90%
Compound: CN1CCN([C@@H]2CCCN(c3cnc(C(N)=O)c(Nc4ccc(C5CCN([C@H]6CC[C@@H](n7ccc8c9c(C%10CCC(=O)NC%10=O)noc9ccc87)CC6)CC5)cc4)n3)C2)C1=O (some centres unmarked) [Compound 102-1]

DC50 (BTK): < 0.098 nM
BTK degradation in OCI-LY10 cells Dmax (BTK): 97.11%
Compound: CN1CCN([C@@H]2CCCN(c3cnc(C(N)=O)c(Nc4ccc(C5CCN([C@H]6CC[C@H](n7ccc8c9c(C%10CCC(=O)NC%10=O)noc9ccc87)CC6)CC5)cc4)n3)C2)C1=O (some centres unmarked) [Compound 102-2]

BTK degradation in OCI-LY10 cells Dmax (BTK): >90%
Compound: NC(=O)c1ncc(N2CCCCC2)nc1Nc1ccc(C2CCN([C@H]3CC[C@H](n4ccc5c6c(C7CCC(=O)NC7=O)noc6ccc54)CC3)CC2)cc1 (some centres unmarked) [Compound 103-2]
